Test [1] has as its system NF-κB. As to the kind of experiment: NF-κB activity assay (SEAP reporter, Quantiblue) in THP-1 Dual cells. Type of test: cell-based, human. To be noted: LPS 100 ng/ml. How it is done: One ml aliquots of PMA-differentiated THP-1 Dual cells (3.3×10^5 cells/nil) in 24 well tissue culture plates were starved for 1 day in complete medium with 1% HI FBS as described above. For experiments with S7 peptide, 0.5 ml cultures in 48 well plates were used. Fresh medium containing 1% HI FBS was added to the cells and after 2 hours cells were stimulated with 100 ng/ml LPS or 25 ng/ml Pam3CSK4 in the presence of RTD-1 or 0.01% acetic acid (HOAc, vehicle). In some experiments cells were pre-incubated with marimastat, Ly294002 or vehicle for 1 hour prior to addition of LPS and/or RTD-1 (SEQ ID NO. 1). Following overnight incubation, medium was clarified by centrifugation and SEAP activity was determined using Quantiblue reagent at 37° C. and measurement of absorbance at 625 nm. To test the effect of RTD-1 on TLR9-dependent NF-κB activation, 2×10^5 HEK-Blue™ hTLR9 cells/ml were cultured for 1 day in 24 well plates and stimulated overnight with ODN2006 with or without RTD-1. Medium was harvested and SEAP activity was assayed using Quantiblue™ as above. NF-κB activation was defined as fold stimulation of SEAP activity with respect to control cells.

The test system of test [2] is THP-1 macrophages. In words: Cytokine secretion ELISA, LPS-stimulated differentiated THP-1 cells. To be noted: LPS 100 ng/ml, comparison RTD-1 versus marimastat. It counts as cell-based, human. How it is done: THP-1 monocytes (ATCC, Manassas, Va.) were cultured in RPMI 1640+10% FBS and penicillin/streptomycin (P/S). THP-1 Dual cells (Invivogen, San Diego, Calif.) which express the NF-κB reporter, secreted embryonic alkaline phosphatase (SEAP), were grown in RPMI 1640+10% HI-FBS and antibiotics. THP-1 cell differentiation was induced by treatment of cells (˜3.3×10^5 cells/ml) with 100 nM PMA and cultured for 2 days. HEK-Blue™ hTLR9 cells (Invivogen) were grown in DMEM medium containing 10% HI-FBS, P/S and normocin. Cells were cultured at 37° C. in 5% CO2. Cytokine assays. PMA-differentiated THP-1 cells (˜8×10^5 cells) cultured in 6-well plates were washed twice with complete medium and grown in fresh medium containing 1% FBS for 24 hours. Cells were washed twice with fresh medium and incubated for 2 hours prior to further manipulation. Cells were stimulated with 100 ng/ml LPS in the presence or absence of 10 μg/ml RTD-1 or vehicle (0.01% acetic acid) for 2 hours. In some experiments, cells were first incubated for 1 hour with 10 μg/ml of marimastat or vehicle (DMSO), after which LPS and/or RTD-1 were added and incubated for 2 hours as above. Peripheral blood CD14+ monocytes (Lonza, Walkersville, Md.) were thawed, rinsed with RPMI 1640 containing 10% HI FBS, P/S and normocin and then resuspended in RPMI 1640 containing 1% HI FBS plus antibiotics as above (10^6 cells/nil) for 2 hours. The cells were then stimulated for 4 hours as described in the legend. Medium was collected, clarified by centrifugation first at 250×g for 8 minutes and then at 5000×g for 5 minutes. TNF-α, IL-1β and IL-8 were quantified by ELISA (Life Technologies, Carlsbad, Calif.).
On the technique in general: ELISA stands for enzyme-linked immunosorbent assay.

On to `CNC(=O)[C@@H](NC(=O)[C@H](CC(C)C)[C@H](O)C(=O)NO)C(C)(C)C` [marimastat, reference compound], for which the “LPS-stimulated NF-κB activation” value in test [1] (comparison RTD-1 versus marimastat, RTD-1 in the presence or absence of marimastat) is recorded as “no effect”. In test [2], the “release of TNF-α by LPS-stimulated THP-1 cells” value is “efficiently blocked” and the “secretion of IL-1β by LPS-stimulated THP-1 cells” value was “did not affect”.
Regarding “HNP-1: human neutrophil α-defensin HNP-1 purified from neutrophils [reference compound]”, in test [1] (equimolar concentrations used in place of RTD-1), the “inhibition of NF-κB activity” value was “no inhibition”.

Source of the values: patent publication US20170035845A1, “Compositions and Methods for Inhibiting Pro-Inflammatory Cytokine Gene Expression” (The Regents of the University of California, priority 2015, published 2017).
